For 26 compounds, IC50 results are on record in US8871767B2, “2-arylimidazo[1,2-B]pyridazine, 2-phenylimidazo[1,2-A]pyridine, and 2-phenylimidazo[1,2-A]pyrazine derivatives” (Hengrui (USA) Ltd., priority 2010, dated 2014).

Assay [1] has as its system Hedgehog pathway activation on 10T1/2/Smo#3 cells (C3H10T1/2 cells transfected with human Smoothened receptor). Nature of the assay: Hedgehog pathway activation on 10T1/2/Smo#3 cells measured by ALP activity. Type of assay: cell-based. The conditions noted are these: Mus musculus, C3H 10T1/2, 10T1/2/Smo#3 cells. The method in brief: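 C3H10T1/2 cells stably expressing human Smoothened were activated with hShh-conditioned medium (10-20%) or 500 nM SAG, with test compounds present. Pathway block read as inhibited ALP activity (4-methylumbelliferyl phosphate fluorescence); viability checked by CellTiter-Blue. IC50 values reported.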

The subject of assay [2] is Hedgehog pathway activation (GLi-luciferase reporter) in Shh Light II reporter cells. The experiment in a line: Hedgehog pathway activation on Shh Light II reporter cells measured by luciferase activity. The assay is classed as cell-based. The conditions noted are these: Mus musculus, Shh Light II. The method in brief:
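Shh Light II reporter cells carrying a hedgehog-responsive GLi-luciferase reporter were stimulated either with 500 nM SAG, a direct Smoothened agonist, or with conditioned media containing human Sonic Hedgehog (hShh). Test compounds were evaluated for blocking this pathway activation, quantified by luciferase activity. Cell viability was monitored in parallel with the Celltiter-Blue® assay.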

Setting [3] is: measured by ALP activity, read-out: ALP (IC50, inhibition of Hedgehog pathway activation).
Setting [4] is: hShh activation, read-out: Shh (IC50, inhibition of Hedgehog pathway activation).
The mark [5] stands for this setting: hShh activation, ALP activity, read-out: 10T1/2/Smo#3 ALP activity (hShh Activation).
Where [6] appears, read: SAG activation (500 nM SAG), read-out: Shh Light II luciferase activity (SAG activation).
The mark [7] stands for this setting: hShh activation, read-out: Shh Light II luciferase activity (hShh activation).

Read-outs that look alike come from different tables or passages of the source.

In the case of `CCOc1ccc2nc(-c3ccc(C(F)(F)F)c(NC(=O)C4CC4)c3)cn2n1` [Example 186, N-(5-(6-ethoxyimidazo[1,2-b]pyridazin-2-yl)-2-(trifluoromethyl)phenyl)cyclopropanecarboxamide], the results for the IC50 in assay [1] (setting [3]) and in assay [2] (setting [4]) were 8380 nM and > 10000 nM, respectively.
The matching figures for `CCOc1ccc2nc(-c3ccc(C(F)(F)F)c(NC(=O)CC(C)(C)C)c3)cn2n1` [Example 187, N-(5-(6-ethoxyimidazo[1,2-b]pyridazin-2-yl)-2-(trifluoromethyl)phenyl)-3,3-dimethylbutanamide]: > 10000 nM and > 10000 nM.
The matching figures for `CCOc1ccc2nc(-c3ccc(C(F)(F)F)c(NC(=O)C(C)(C)C(F)(F)F)c3)cn2n1` [Example 188, N-(5-(6-ethoxyimidazo[1,2-b]pyridazin-2-yl)-2-(trifluoromethyl)phenyl)-3,3,3-trifluoro-2,2-dimethylpropanamide]: 875 nM and 1400 nM.
With `CCOc1ccc2nc(-c3ccc(C(F)(F)F)c(NC(=O)C4CCCC4)c3)cn2n1` [Example 189, N-(5-(6-ethoxyimidazo[1,2-b]pyridazin-2-yl)-2-(trifluoromethyl)phenyl)cyclopentanecarboxamide], the figures for the IC50 in assay [1] (setting [3]) and in assay [2] (setting [4]) were 2100 nM and 2000 nM, respectively.
For the compound `CCOc1ccc2nc(-c3ccc(C(F)(F)F)c(NC(=O)C4CCCCC4)c3)cn2n1` [Example 190, N-(5-(6-ethoxyimidazo[1,2-b]pyridazin-2-yl)-2-(trifluoromethyl)phenyl)cyclohexanecarboxamide], the IC50 was 5260 nM in assay [1] (setting [3]) and > 10000 nM in assay [2] (setting [4]).
The matching figures for `CCOc1ccc2nc(-c3ccc(C(F)(F)F)c(NC(=O)c4ccccc4)c3)cn2n1` [Example 191, N-(5-(6-ethoxyimidazo[1,2-b]pyridazin-2-yl)-2-(trifluoromethyl)phenyl)benzamide]: 1570 nM and 579 nM.
As to `CCOc1ccc2nc(-c3ccc(C(F)(F)F)c(NC(=O)c4ccccc4F)c3)cn2n1` [Example 192, N-(5-(6-ethoxyimidazo[1,2-b]pyridazin-2-yl)-2-(trifluoromethyl)phenyl)-2-fluorobenzamide], the IC50 in assay [1] (setting [3]) was found to be 4760 nM; in assay [2] (setting [4]) it was 1580 nM.
The matching figures for `CCOc1ccc2nc(-c3ccc(C(F)(F)F)c(NC(=O)c4cccnc4)c3)cn2n1` [Example 193, N-(5-(6-ethoxyimidazo[1,2-b]pyridazin-2-yl)-2-(trifluoromethyl)phenyl)nicotinamide]: 2340 nM and 7760 nM.
The matching figures for `CCOc1ccc2nc(-c3ccc(C(F)(F)F)c(NC(=O)Cc4ccccc4)c3)cn2n1` [Example 194, N-(5-(6-ethoxyimidazo[1,2-b]pyridazin-2-yl)-2-(trifluoromethyl)phenyl)-2-phenylacetamide]: > 10000 nM and 1750 nM.
`CC(C)(C)C(=O)Nc1cc(-c2cn3nc(Oc4ccccc4F)ccc3n2)ccc1C(F)(F)F` [Example 195, N-(5-(6-(2-fluorophenoxy)imidazo[1,2-b]pyridazin-2-yl)-2-(trifluoromethyl)phenyl)pivalamide]: the IC50 in assay [1] (setting [3]) worked out at 718 nM; in assay [2] (setting [4]) it was 267 nM.
Consider `CC(C)(C)C(=O)Nc1cc(-c2cn3nc(Oc4ccc(F)cc4)ccc3n2)ccc1C(F)(F)F` [Example 196, N-(5-(6-(4-fluorophenoxy)imidazo[1,2-b]pyridazin-2-yl)-2-(trifluoromethyl)phenyl)pivalamide], for which the IC50 in assay [1] (setting [5]) was 300 to 3000 nM; in assay [1] (setting [3]), 1620 nM; in assay [2] (setting [6]) it was 3000 to 30000 nM; in assay [2] (setting [4]), 726 nM; in assay [2] (setting [7]), 300 to 3000 nM.
With `COc1ccccc1Oc1ccc2nc(-c3ccc(C(F)(F)F)c(NC(=O)C(C)(C)C)c3)cn2n1` [Example 197, N-(5-(6-(2-methoxyphenoxy)imidazo[1,2-b]pyridazin-2-yl)-2-(trifluoromethyl)phenyl)pivalamide], the IC50 was determined as 875 nM in assay [1] (setting [3]) and 357 nM in assay [2] (setting [4]).
With `Cc1c(Cl)nn2cc(-c3ccc(C(F)(F)F)c(NC(=O)C(C)(C)C)c3)nc2c1C` [Example 198, N-(5-(6-chloro-7,8-dimethylimidazo[1,2-b]pyridazin-2-yl)-2-(trifluoromethyl)phenyl)pivalamide], the IC50 in assay [1] (setting [5]) is 300 to 3000 nM; in assay [1] (setting [3]), 1970 nM; in assay [2] (setting [6]), 3000 to 30000 nM; in assay [2] (setting [4]) it was 1680 nM; in assay [2] (setting [7]), 300 to 3000 nM.
For the compound `Cc1c(-c2cccnc2F)nn2cc(-c3ccc(C(F)(F)F)c(NC(=O)C(C)(C)C)c3)nc2c1C` [Example 199, N-(5-(6-(2-fluoropyridin-3-yl)-7,8-dimethylimidazo[1,2-b]pyridazin-2-yl)-2-(trifluoromethyl)phenyl)pivalamide], the IC50 in assay [1] (setting [3]) was 111 nM; in assay [2] (setting [4]), 337 nM.
The matching figures for `Cc1c(-c2ccccc2F)nn2cc(-c3ccc(C(F)(F)F)c(NC(=O)C(C)(C)C)c3)nc2c1C` [Example 200, N-(5-(6-(2-fluorophenyl)-7,8-dimethylimidazo[1,2-b]pyridazin-2-yl)-2-(trifluoromethyl)phenyl)pivalamide]: 284 nM and 281 nM.
The matching figures for `CCOc1nn2cc(-c3ccc(C(F)(F)F)c(NC(=O)C(C)(C)C)c3)nc2c(C)c1C` [Example 201, N-(5-(6-ethoxy-7,8-dimethylimidazo[1,2-b]pyridazin-2-yl)-2-(trifluoromethyl)phenyl)pivalamide]: 869 nM and 402 nM.
The matching figures for `Cc1c(-c2ccccn2)nn2cc(-c3ccc(C(F)(F)F)c(NC(=O)C(C)(C)C)c3)nc2c1C` [Example 202, N-(5-(7,8-dimethyl-6-(pyridin-2-yl)-imidazo[1,2-b]pyridazin-2-yl)-2-(trifluoromethyl)phenyl)pivalamide]: 1320 nM and 221 nM.
Take `FC(F)(F)c1ccc(-c2cn3nc(Cl)ccc3n2)cc1Br` [Example 203, 2-(3-bromo-4-(trifluoromethyl)phenyl)-6-chloroimidazo[1,2-b]pyridazine]: the IC50 is 9450 nM in assay [1] (setting [3]) and > 10000 nM in assay [2] (setting [4]).
Consider `CCOc1ccc2nc(-c3ccc(C(F)(F)F)c(Br)c3)cn2n1` [Example 204, 2-(3-bromo-4-(trifluoromethyl)phenyl)-6-ethoxyimidazo[1,2-b]pyridazine], for which the IC50 in assay [1] (setting [5]) is 3000 to 30000 nM; in assay [1] (setting [3]), 9530 nM; in assay [2] (setting [6]), 3000 to 30000 nM; in assay [2] (setting [4]), > 10000 nM; in assay [2] (setting [7]) it was 3000 to 30000 nM.
Take `Cc1ccc(-c2ccc3nc(-c4ccc(C(F)(F)F)c(NC(=O)C(C)(C)C)c4)cn3n2)c(F)c1` [Example 205, N-(5-(6-(2-fluoro-4-methylphenyl)imidazo[1,2-b]pyridazin-2-yl)-2-(trifluoromethyl)phenyl)pivalamide]: the IC50 in assay [1] (setting [3]) was determined as 196 nM; in assay [2] (setting [4]), 279 nM.
The matching figures for `COc1cccc(-c2ccc3nc(-c4ccc(C(F)(F)F)c(NC(=O)C(C)(C)C)c4)cn3n2)c1F` [Example 206, N-(5-(6-(2-fluoro-3-methoxyphenyl)imidazo[1,2-b]pyridazin-2-yl)-2-(trifluoromethyl)phenyl)pivalamide]: 246 nM and 341 nM.
For `CC(C)(C)C(=O)Nc1cc(-c2cn3nc(-c4cc(C(F)(F)F)ccc4F)ccc3n2)ccc1C(F)(F)F` [Example 207, N-(5-(6-(2-fluoro-5-(trifluoromethyl)phenyl)imidazo[1,2-b]pyridazin-2-yl)-2-(trifluoromethyl)phenyl)pivalamide], the IC50 is < 300 nM in assay [1] (setting [5]); 43 nM in assay [1] (setting [3]); < 300 nM in assay [2] (setting [6]); 43 nM in assay [2] (setting [4]); < 300 nM in assay [2] (setting [7]).
On to `CC(C)(C)C(=O)Nc1cc(-c2cn3nc(-c4ccccc4Cl)ccc3n2)ccc1C(F)(F)F` [Example 208, N-(5-(6-(2-chlorophenyl)imidazo[1,2-b]pyridazin-2-yl)-2-(trifluoromethyl)phenyl)pivalamide], for which the IC50 in assay [1] (setting [3]) amounted to 140 nM; in assay [2] (setting [4]) it was 95 nM.
The matching figures for `CC(C)(C)C(=O)Nc1cc(-c2cn3nc(-c4ccccc4C(F)(F)F)ccc3n2)ccc1C(F)(F)F` [Example 209, N-(2-(trifluoromethyl)-5-(6-(2-(trifluoromethyl)phenyl)imidazo[1,2-b]pyridazin-2-yl)phenyl)pivalamide]: 97 nM and 72 nM.
For the compound `CC(C)(C)C(=O)Nc1cc(-c2cn3nc(-c4ccc(C(F)(F)F)cc4)ccc3n2)ccc1C(F)(F)F` [Example 210, N-(2-(trifluoromethyl)-5-(6-(4-(trifluoromethyl)phenyl)imidazo[1,2-b]pyridazin-2-yl)phenyl)pivalamide], the IC50 was 375 nM in assay [1] (setting [3]) and 223 nM in assay [2] (setting [4]).
The matching figures for `CCOc1ccc2nc(-c3ccc(C(F)(F)F)c(C(=O)NC(C)(C)C)c3)cn2n1` [Example 211, N-tert-butyl-5-(6-ethoxyimidazo[2,1-f]pyridazin-2-yl)-2-(trifluoromethyl)benzamide]: 6960 nM and 1020 nM.
